This note sets out measurements from article PMC9860315, “Neuronally produced betaine acts via a ligand-gated ion channel to control behavioral states” (Proceedings of the National Academy of Sciences of the …, 2022).

Assay [1] addresses T1, LGC-41 (Caenorhabditis elegans, UniProt Q18518).
T1 construct: homomeric channel, cDNA from wild-type N2
T1 sequence (Q18518 26-540): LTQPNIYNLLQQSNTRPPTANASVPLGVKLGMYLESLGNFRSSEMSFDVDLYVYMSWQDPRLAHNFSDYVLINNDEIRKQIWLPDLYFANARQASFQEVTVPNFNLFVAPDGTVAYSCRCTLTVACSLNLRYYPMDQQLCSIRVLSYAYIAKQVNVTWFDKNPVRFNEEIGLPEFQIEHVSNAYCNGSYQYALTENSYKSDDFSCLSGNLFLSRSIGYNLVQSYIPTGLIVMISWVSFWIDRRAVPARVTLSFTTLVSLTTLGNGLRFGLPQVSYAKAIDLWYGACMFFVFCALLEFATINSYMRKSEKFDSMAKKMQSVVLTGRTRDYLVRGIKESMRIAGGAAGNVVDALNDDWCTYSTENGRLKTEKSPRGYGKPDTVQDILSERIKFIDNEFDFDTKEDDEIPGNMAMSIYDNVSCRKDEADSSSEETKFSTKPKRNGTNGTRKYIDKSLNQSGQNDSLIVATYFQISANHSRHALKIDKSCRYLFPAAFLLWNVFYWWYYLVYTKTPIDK
As to the kind of experiment: two-electrode voltage clamp in Xenopus oocytes, block of current induced by […] betaine. Type of assay: cell-based. A general note: Two-electrode voltage clamp holds a large cell at a set potential and records current.

The target in assay [2] is T1, LGC-41. As to the kind of experiment: two-electrode voltage clamp in Xenopus oocytes, agonist dose-response. Type of assay: cell-based.

As to `O=C1C[C@@H]2OCC=C3CN4CC[C@]56c7ccccc7N1[C@H]5[C@H]2[C@H]3C[C@H]46` [strychnine], half-maximal inhibition against LGC-41 [1] (IC50) required 973 µM.
Regarding `C=C(C)[C@@H]1[C@H]2OC(=O)[C@@H]1[C@]1(O)C[C@H]3OC34C(=O)O[C@H]2[C@@]41C.CC(C)(O)[C@@H]1[C@H]2OC(=O)[C@@H]1[C@]1(O)C[C@H]3OC34C(=O)O[C@H]2[C@@]41C` (stereo partly drawn) [picrotoxin], on LGC-41 [1], 144 µM corresponded to half-maximal inhibition (IC50).
In the case of `C[N+](C)(C)CC(=O)O` [betaine], a half-maximal response on LGC-41 [2] (EC50) required 211 µM.
